Row | Structure (SMILES) | melting point [°C]
1 | Cc1cncc(Cl)c1Nc1nccc2c1ccn2CC(=O)N1CCC1 [Co. No. 12] | 211.88
2 | Cc1cccc(C(F)(F)F)c1Nc1nccc2c1ccn2CC(=O)N(C)C [Co. No. 21] | 187.16
3 | Cc1cc(C(F)(F)F)cc(C)c1Nc1nccc2c1ccn2CC(=O)N(C)C [Co. No. 18] | 214.46
4 | COc1nccc(C)c1Nc1nccc2c1ccn2CC(=O)N(C)C [Co. No. 4] | 221.78
5 | CN(C)C(=O)Cn1ccc2c(Nc3c(Cl)cccc3Cl)nccc21 [Co. No. 5] | 215.7
6 | Cc1cc(C(F)(F)F)cc(C(C)C)c1Nc1nccc2c1ccn2CC(=O)N(C)C [Co. No. 6] | 228.29
7 | Cc1ccc2c(ccn2C)c1Nc1nccc2c1ccn2CC(=O)N(C)C [Co. No. 2] | 251.73

Now from value to molecule:

Row | melting point [°C] | Structure (SMILES)
8 | 200.76 | CN(C)C(=O)Cn1ccc2c(Nc3c(Cl)cccc3OC(F)(F)F)nccc21 [Co. No. 24]
9 | 69.34 | CC(C)c1cc(OC(F)(F)F)cc(Cl)c1Nc1nccc2c1ccn2CC(=O)N(C)C [Co. No. 27]
10 | 211.1 | Cc1cccc(Cl)c1Nc1nccc2c1ccn2CC(=O)N(C)C [Co. No. 22]
11 | 202.75 | CN(C)C(=O)Cn1ccc2c(Nc3c(F)cccc3Cl)nccc21 [Co. No. 23]
